# Legend:
# HT29 = experiment: In vitro cytotoxicity (NCI protocol, SRB), HT29; settings: Homo sapiens, HT-29, 48 h
# U251 = experiment: In vitro cytotoxicity (NCI protocol, SRB), U251; settings: Homo sapiens, U-251, 48 h
# K-562 = experiment: In vitro cytotoxicity (NCI protocol, SRB), K-562; settings: Homo sapiens, K562, 48 h
# A498 = experiment: In vitro cytotoxicity (NCI protocol, SRB), A498; settings: Homo sapiens, A498, 48 h
# PC-3 = experiment: In vitro cytotoxicity (NCI protocol, SRB), PC-3; settings: Homo sapiens, PC-3, 48 h
# 786-0 = experiment: In vitro cytotoxicity (NCI protocol, SRB), 786-0; settings: Homo sapiens, 786-0, 48 h
# SN12C = experiment: In vitro cytotoxicity (NCI protocol, SRB), SN12C; settings: Homo sapiens, 48 h
# HOP-62 = experiment: In vitro cytotoxicity (NCI protocol, SRB), HOP-62; settings: Homo sapiens, HOP-62, 48 h
# HCT-15 = experiment: In vitro cytotoxicity (NCI protocol, SRB), HCT-15; settings: Homo sapiens, HCT-15, 48 h
# SW-620 = experiment: In vitro cytotoxicity (NCI protocol, SRB), SW-620; settings: Homo sapiens, SW-620, 48 h
# SF-268 = experiment: In vitro cytotoxicity (NCI protocol, SRB), SF-268; settings: Homo sapiens, SF-268, 48 h
# SF-295 = experiment: In vitro cytotoxicity (NCI protocol, SRB), SF-295; settings: Homo sapiens, SF-295, 48 h
# IGROV1 = experiment: In vitro cytotoxicity (NCI protocol, SRB), IGROV1; settings: Homo sapiens, IGROV-1, 48 h
# CAKI-1 = experiment: In vitro cytotoxicity (NCI protocol, SRB), CAKI-1; settings: Homo sapiens, CAKI-1, 48 h
# BT-549 = experiment: In vitro cytotoxicity (NCI protocol, SRB), BT-549; settings: Homo sapiens, BT-549, 48 h
# NCI-H23 = experiment: In vitro cytotoxicity (NCI protocol, SRB), NCI-H23; settings: Homo sapiens, NCI-H23, 48 h
# CCRF-CEM = experiment: In vitro cytotoxicity (NCI protocol, SRB), CCRF-CEM; settings: Homo sapiens, 48 h
# SNB -19 = experiment: In vitro cytotoxicity (NCI protocol, SRB), SNB -19; settings: Homo sapiens, SNB-19, 48 h
# SNB -75 = experiment: In vitro cytotoxicity (NCI protocol, SRB), SNB -75; settings: Homo sapiens, SNB-75, 48 h
# OVCAR-4 = experiment: In vitro cytotoxicity (NCI protocol, SRB), OVCAR-4; settings: Homo sapiens, OVCAR-4, 48 h
# RXF 393 = experiment: In vitro cytotoxicity (NCI protocol, SRB), RXF 393; settings: Homo sapiens, RXF 393, 48 h
# NCI-H226 = experiment: In vitro cytotoxicity (NCI protocol, SRB), NCI-H226; settings: Homo sapiens, NCI-H226, 48 h
# HCC-2998 = experiment: In vitro cytotoxicity (NCI protocol, SRB), HCC-2998; settings: Homo sapiens, HCC 2998, 48 h
# LOX IMVI = experiment: In vitro cytotoxicity (NCI protocol, SRB), LOX IMVI; settings: Homo sapiens, 48 h
# SK-MEL-2 = experiment: In vitro cytotoxicity (NCI protocol, SRB), SK-MEL-2; settings: Homo sapiens, SK-MEL-2, 48 h
# SK-MEL-5 = experiment: In vitro cytotoxicity (NCI protocol, SRB), SK-MEL-5; settings: Homo sapiens, SK-MEL-5, 48 h
# RPMI-8226 = experiment: In vitro cytotoxicity (NCI protocol, SRB), RPMI-8226; settings: Homo sapiens, RPMI-8226, 48 h
# A549/ATCC = experiment: In vitro cytotoxicity (NCI protocol, SRB), A549/ATCC; settings: Homo sapiens, A549, 48 h
# SK-MEL-28 = experiment: In vitro cytotoxicity (NCI protocol, SRB), SK-MEL-28; settings: Homo sapiens, SK-MEL-28, 48 h
# T-47D = experiment: In vitro cytotoxicity (NCI protocol, SRB), T-47D; settings: Homo sapiens, T47D, 48 h
Compound,GI50 (HT29),GI50 (U251),GI50 (K-562),GI50 (A498),GI50 (PC-3),GI50 (786-0),GI50 (SN12C),GI50 (HOP-62),GI50 (HCT-15),GI50 (SW-620),GI50 (SF-268),GI50 (SF-295),GI50 (IGROV1),GI50 (CAKI-1),GI50 (BT-549),GI50 (NCI-H23),GI50 (CCRF-CEM),GI50 (SNB -19),GI50 (SNB -75),GI50 (OVCAR-4),other results
"COc1ccc(S(=O)(=O)Nc2cc(/C=C\c3cc(OC)c(OC)c(OC)c3)ccc2OC)cc1 [12a, (Z)-4-methoxy-N-(2-methoxy-5-(3,4,5-trimethoxystyryl)phenyl)benzenesulfonamide]",0.081 µM,0.108 µM,0.053 µM,0.0353 µM,0.124 µM,0.361 µM,0.682 µM,0.041 µM,0.0623 µM,0.0785 µM,0.401 µM,0.0393 µM,0.166 µM,0.0515 µM,0.197 µM,0.48 µM,0.176 µM,0.352 µM,0.0708 µM,0.581 µM,GI50 (RXF 393): 0.0814 µM; GI50 (NCI-H226): 12.8 µM; GI50 (HCC-2998): 0.442 µM; GI50 (LOX IMVI): 0.272 µM; GI50 (SK-MEL-2): 0.0803 µM; GI50 (SK-MEL-5): 0.0488 µM; GI50 (RPMI-8226): 0.319 µM; GI50 (A549/ATCC): 0.159 µM; GI50 (SK-MEL-28): 0.143 µM
"COc1ccc(S(=O)(=O)Nc2cc(/C=C\c3cc(OC)c(OC)c(OC)c3)cc(OC)c2OC)cc1 [13a, (Z)—N-(2,3-dimethoxy-5-(3,4,5-trimethoxystyryl)phenyl)-4-methoxybenzenesulfonamide]",0.0331 µM,0.0357 µM,0.0272 µM,0.0217 µM,0.038 µM,0.0579 µM,0.0698 µM,0.0405 µM,0.0358 µM,0.0439 µM,0.0575 µM,0.0311 µM,0.0577 µM,0.0531 µM,0.0425 µM,0.0593 µM,0.0329 µM,0.0601 µM,0.0265 µM,0.0842 µM,GI50 (T-47D): 5.21 µM; GI50 (RXF 393): 0.0401 µM; GI50 (NCI-H226): 27.3 µM; GI50 (HCC-2998): 0.0391 µM; GI50 (LOX IMVI): 0.05 µM; GI50 (SK-MEL-2): 0.0374 µM; GI50 (SK-MEL-5): 0.0359 µM; GI50 (RPMI-8226): 0.0459 µM; GI50 (A549/ATCC): 0.0474 µM; GI50 (SK-MEL-28): 0.0765 µM
"COc1cc(/C=C\c2cc(OC)c(OC)c(OC)c2)cc(NS(=O)(=O)c2ccc(Cl)cc2)c1OC [13c, (Z)-4-chloro-N-(2,3-dimethoxy-5-(3,4,5-trimethoxystyryl)phenyl)benzenesulfonamide]",0.348 µM,0.461 µM,0.306 µM,0.179 µM,0.395 µM,0.666 µM,0.75 µM,0.414 µM,0.399 µM,0.343 µM,1.1 µM,0.319 µM,0.914 µM,0.374 µM,0.966 µM,0.71 µM,0.388 µM,0.745 µM,0.227 µM,1.53 µM,GI50 (T-47D): 0.381 µM; GI50 (RXF 393): 0.272 µM; GI50 (NCI-H226): 13.5 µM; GI50 (HCC-2998): 1.98 µM; GI50 (LOX IMVI): 0.566 µM; GI50 (SK-MEL-2): 0.613 µM; GI50 (SK-MEL-5): 0.297 µM; GI50 (RPMI-8226): 0.387 µM; GI50 (A549/ATCC): 0.716 µM; GI50 (SK-MEL-28): 1.14 µM
"COc1ccc(S(=O)(=O)Nc2c(/C=C\c3cc(OC)c(OC)c(OC)c3)ccc(OC)c2O)cc1 [17a, (Z)—N-(2-hydroxy-3-methoxy-6-(3,4,5-trimethoxystyryl)phenyl)-4-methoxybenzenesulfonamide]",1.4 µM,0.0374 µM,0.0286 µM,0.0188 µM,0.0408 µM,0.375 µM,0.0869 µM,0.0397 µM,0.0366 µM,0.0408 µM,0.0839 µM,0.0339 µM,0.054 µM,0.0516 µM,0.0501 µM,0.052 µM,0.0301 µM,0.0602 µM,0.0255 µM,0.0763 µM,GI50 (RXF 393): 0.0318 µM; GI50 (NCI-H226): 4.13 µM; GI50 (HCC-2998): 0.0316 µM; GI50 (LOX IMVI): 0.0455 µM; GI50 (SK-MEL-2): 0.0437 µM; GI50 (SK-MEL-5): 0.0363 µM; GI50 (RPMI-8226): 0.0469 µM; GI50 (A549/ATCC): 0.0459 µM
"COc1ccc(/C=C\c2cc(OC)c(OC)c(OC)c2)c(NS(=O)(=O)c2ccc(Cl)cc2)c1O [17c, (Z)-4-chloro-N-(2-hydroxy-3-methoxy-6-(3,4,5-trimethoxystyryl)phenyl)benzenesulfonamide]",2.76 µM,0.287 µM,0.0323 µM,0.0229 µM,0.153 µM,0.572 µM,0.708 µM,0.671 µM,0.053 µM,0.0694 µM,0.38 µM,0.256 µM,0.379 µM,0.0542 µM,0.353 µM,0.288 µM,0.159 µM,0.807 µM,0.0331 µM,0.0972 µM,GI50 (RXF 393): 0.0355 µM; GI50 (NCI-H226): 24.9 µM; GI50 (HCC-2998): 0.429 µM; GI50 (LOX IMVI): 0.153 µM; GI50 (SK-MEL-2): 0.0659 µM; GI50 (SK-MEL-5): 0.051 µM; GI50 (RPMI-8226): 0.207 µM; GI50 (A549/ATCC): 0.27 µM; GI50 (SK-MEL-28): 0.0841 µM
